From US20180161449A1 (OCULIS EHF, priority 2015, published 2018)

Columns and labels:
[1] = format: physicochemical
Experimental: An excess amount of drug was added to aqueous solutions containing up to 20% (w/v) cyclodextrin. The solutions were sonicated at 40-50° C. for 45-60 minutes in sealed glass vials, and then allowed to cool to room temperature (22-23° C.). Small amount of solid drug was then added to each vial, the vial resealed and allowed to equilibrate under constant agitation and protected from light for 7 days at room temperature. When the solutions had reached equilibrium, they were filtered through a 0.45 μm membrane filter and analyzed by high pressure liquid chromatography. […] The complexation efficiency (CE) was determined from the slope of phase-solubility diagrams (plots of total solubility of the drug versus total CD concentration in mol/l) where S0 is the intrinsic solubility of the drug:
The mobile phase consisted of acetonitrile, methanol and water (60:20:20), the flow rate was 1 ml/min, the column oven temperature was 80° C. and the detection wavelength was 205 nm.

[2] = pure water at room temperature; cited from earlier work

Compound | CE (complexation efficiency) [1] | Solubility in the presence of 5% (w/v) cyclodextrin [1] | Solubility of the cyclodextrin in pure water [2] | Solubility in the presence of 15% (w/v) cyclodextrin [1]
2-Hydroxypropyl-α-cyclodextrin | 0.031 | 0.084 mg/mL |  | 0.46 mg/mL
OC[C@H]1O[C@@H]2O[C@H]3[C@H](O)[C@@H](O)[C@@H](O[C@H]4[C@H](O)[C@@H](O)[C@@H](O[C@H]5[C@H](O)[C@@H](O)[C@@H](O[C@H]6[C@H](O)[C@@H](O)[C@@H](O[C@H]7[C@H](O)[C@@H](O)[C@@H](O[C@H]8[C@H](O)[C@@H](O)[C@@H](O[C@H]9[C@H](O)[C@@H](O)[C@@H](O[C@H]1[C@H](O)[C@H]2O)O[C@@H]9CO)O[C@@H]8CO)O[C@@H]7CO)O[C@@H]6CO)O[C@@H]5CO)O[C@@H]4CO)O[C@@H]3CO [γ-Cyclodextrin] | 0.0049 |  |  | 
OC[C@H]1O[C@@H]2O[C@H]3[C@H](O)[C@@H](O)[C@@H](O[C@H]4[C@H](O)[C@@H](O)[C@@H](O[C@H]5[C@H](O)[C@@H](O)[C@@H](O[C@H]6[C@H](O)[C@@H](O)[C@@H](O[C@H]7[C@H](O)[C@@H](O)[C@@H](O[C@H]1[C@H](O)[C@H]2O)O[C@@H]7CO)O[C@@H]6CO)O[C@@H]5CO)O[C@@H]4CO)O[C@@H]3CO [α-Cyclodextrin] | 0.54 |  |  | 4.2 mg/mL

Further lines, with some results ahead:

CE (complexation efficiency) [1] | Solubility in the presence of 5% (w/v) cyclodextrin [1] | Compound | Solubility of the cyclodextrin in pure water [2] | Solubility in the presence of 15% (w/v) cyclodextrin [1]
0.030 |  | OC[C@H]1O[C@@H]2O[C@H]3[C@H](O)[C@@H](O)[C@@H](O[C@H]4[C@H](O)[C@@H](O)[C@@H](O[C@H]5[C@H](O)[C@@H](O)[C@@H](O[C@H]6[C@H](O)[C@@H](O)[C@@H](O[C@H]7[C@H](O)[C@@H](O)[C@@H](O[C@H]8[C@H](O)[C@@H](O)[C@@H](O[C@H]1[C@H](O)[C@H]2O)O[C@@H]8CO)O[C@@H]7CO)O[C@@H]6CO)O[C@@H]5CO)O[C@@H]4CO)O[C@@H]3CO [β-Cyclodextrin] | 2 % (w/v) | 
0.053 | 0.13 mg/mL | Randomly methylated β-cyclodextrin |  | 
0.0011 |  | 2-Hydroxypropyl-γ-cyclodextrin |  | 
